PMC5446775, “Interactions of 172 plant extracts with human organic anion transporter 1 (SLC22A6) and 3 (SLC22A8): a study on herb-drug interactions” (PeerJ, 2017)
“And” between values parts separate entries of the source, which are not always exact repeats. Equal entries are not always repeated.

Experiments:
[1] = Pharmacokinetics of furosemide in rats with and without Juncus effusus extract; format: in vivo; conditions: FS 10 mg/kg i.v. alone
[2] = biological target: T1, hOAT3 (Homo sapiens, UniProt Q8TCC7); assay: Inhibition of 6-CF uptake in HEK-OAT3 cells (screening at 5 μg/ml and concentration-dependent inhibition); format: cell-based; set-up: Invitrogen (Flp-In system, cells); 6-CF uptake OAT3, Figure 2 raw data (single replicates) / OAT3-mediated 6-CF uptake (Inhibitory effects of butanol extracts on OAT-mediated 6-CF), raw replicate values / OAT3-mediated 6-CF uptake (Inhibitory effects of aqueous extracts on OAT-mediated 6-CF), raw replicate values: unit not given here
T1 sequence (Q8TCC7 1-542): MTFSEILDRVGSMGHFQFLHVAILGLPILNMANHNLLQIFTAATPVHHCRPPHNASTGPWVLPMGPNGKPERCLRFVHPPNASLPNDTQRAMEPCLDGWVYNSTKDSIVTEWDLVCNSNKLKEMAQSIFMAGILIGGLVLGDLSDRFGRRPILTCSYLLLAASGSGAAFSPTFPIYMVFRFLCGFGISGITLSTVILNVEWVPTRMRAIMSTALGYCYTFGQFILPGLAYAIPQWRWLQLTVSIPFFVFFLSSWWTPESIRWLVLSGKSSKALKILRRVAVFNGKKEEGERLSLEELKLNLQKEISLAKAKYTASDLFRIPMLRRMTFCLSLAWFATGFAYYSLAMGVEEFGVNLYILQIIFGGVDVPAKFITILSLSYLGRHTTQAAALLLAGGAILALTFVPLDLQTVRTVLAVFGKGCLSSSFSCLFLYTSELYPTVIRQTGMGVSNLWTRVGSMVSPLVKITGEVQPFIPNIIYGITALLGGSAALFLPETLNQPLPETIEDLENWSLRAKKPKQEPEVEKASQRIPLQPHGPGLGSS
Procedure: The stock solutions of plant extracts were prepared using DMSO with a final concentration of 1 mg/ml. The initial concentration for each extract was set at 5 μg∕ml. Every well contained the same concentration of DMSO (0.5%) to eliminate the potential effect of solvent. […] Before the initial screening, the reproducibility of uptake experiments was evaluated. […] Due to the large number of samples, for the initial screening study, each uptake experimental sample was measured in triplicates in the same assay.
After the uptake was terminated at 4 min and 10 min for OAT1 and OAT3 respectively, intracellular fluorescence was determined as above.

[3] = substrate: O=C(O)c1ccc(C(=O)O)c(-c2c3ccc(=O)cc-3oc3cc(O)ccc23)c1; assay: cells, lysate or membranes; conditions: pH 7.2
[4] = other: HEK-OAT3, 6-CF 0–500 μM, 10 min
[5] = other: HEK-OAT1, 6-CF 0–500 μM, 4 min

NS(=O)(=O)c1cc(C(=O)O)c(NCc2ccco2)cc1Cl [FS, furosemide]
Clobs of FS [1]: 1.0 ± 1.0 L/min/kg × 10^−3 | V z_obs of FS [1]: 146.9 ± 12.1 L/kg ×10^−3

CCCN(CCC)S(=O)(=O)c1ccc(C(=O)O)cc1 [probenecid, Probenecid]
6-CF fluorescence of cells (fluorescence images) ([2]; HEK-OAT3, co-incubation with probenecid 30 μM): almost completely abolished | OAT3-mediated 6-CF uptake (Inhibitory effects of aqueous extracts on OAT-mediated 6-CF), raw replicate values ([2]; aqueous extracts, screening at 5 μg/ml, HEK-OAT3 cells, three replicate columns, Control about 100, Prob = positive control): 2.375 and 2.144 and 0.9311 | OAT3-mediated 6-CF uptake (Inhibitory effects of butanol extracts on OAT-mediated 6-CF), raw replicate values ([2]; butanol extracts, screening at 5 μg/ml, HEK-OAT3 cells, three replicate columns, Control about 100, Prob = positive control): 2.375 and 2.144 and 0.9311 | 6-CF uptake OAT3, Figure 2 raw data (single replicates) ([2]; probenecid 30 μM positive control, 6-CF 4 μM, 10 min, HEK-OAT3): 2.375 and 2.144 and 0.9311

B1: hOAT3 (Homo sapiens) (protein)
chain: T1 sequence (Q8TCC7 1-542)
Km [3, 4]: 112.9 ± 14.24 µM | Vmax [3, 4]: 71.89 ± 3.42 pmol/mg protein/min

B2: hOAT1 (Homo sapiens) (protein)
chain: MAFNDLLQQVGGVGRFQQIQVTLVVLPLLLMASHNTLQNFTAAIPTHHCRPPADANLSKNGGLEVWLPRDRQGQPESCLRFTSPQWGLPFLNGTEANGTGATEPCTDGWIYDNSTFPSTIVTEWDLVCSHRALRQLAQSLYMVGVLLGAMVFGYLADRLGRRKVLILNYLQTAVSGTCAAFAPNFPIYCAFRLLSGMALAGISLNCMTLNVEWMPIHTRACVGTLIGYVYSLGQFLLAGVAYAVPHWRHLQLLVSAPFFAFFIYSWFFIESARWHSSSGRLDLTLRALQRVARINGKREEGAKLSMEVLRASLQKELTMGKGQASAMELLRCPTLRHLFLCLSMLWFATSFAYYGLVMDLQGFGVSIYLIQVIFGAVDLPAKLVGFLVINSLGRRPAQMAALLLAGICILLNGVIPQDQSIVRTSLAVLGKGCLAASFNCIFLYTGELYPTMIRQTGMGMGSTMARVGSIVSPLVSMTAELYPSMPLFIYGAVPVAASAVTVLLPETLGQPLPDTVQDLESRWAPTQKEAGIYPRKGKQTRQQQEHQKYMVPLQASAQEKNGL
Km [3, 5]: 10.86 ± 0.64 µM | Vmax [3, 5]: 168.5 ± 2.27 pmol/mg protein/min
